# Source: patent US8536332B2, “Modulating signal transduction pathways with substituted pyridol [2,3-b] pyrazines” (Aeterna Zentaris GmbH, priority 2007, dated 2013)
row,SMILES,melting point
1,"CCNC(=O)Nc1ccc2ncc(-c3ccccc3OCC(C)C)nc2n1 [Compound 62, 1-Ethyl-3-[3-(2-isobutoxy-phenyl)-pyrido[2,3-b]pyrazin-6-yl]-urea]",179 to 181 °C
2,"CCNC(=O)Nc1ccc2ncc(-c3cc(C(C)=O)ccc3F)nc2n1 [Compound 79, 1-[3-(5-Acetyl-2-fluoro-phenyl)-pyrido[2,3-b]pyrazin-6-yl]-3-ethyl-urea]",238.1 to 241.8 °C
3,CCNC(=O)Nc1ccc2ncc(-c3ccc(OP(=O)(OCC)OCC)c(OC)c3)nc2n1,182 to 184 °C
4,"Cc1cc(-c2ccc3ncc(NC(=O)Nc4c(C)noc4C)nc3n2)cc(C)c1O [Compound 590, 1-(3,5-Dimethyl-isoxazol-4-yl)-3-[6-(4-hydroxy-3,5-dimethyl-phenyl)-pyrido[2,3-b]pyrazin-3-yl]-urea]",242 to 244 °C
5,"COc1cc(Nc2cnc3ccc(NC(=S)NCc4ccccc4)nc3n2)cc(OC)c1OC [Compound 697, 1-Benzyl-3-[3-(3,4,5-trimethoxy-phenylamino)-pyrido[2,3-b]pyrazin-6-yl]-thiourea]",250 to 252 °C
6,"CCNC(=S)Nc1cnc2ccc(Cl)nc2n1 [Example 2, 1-(6-Chloro-pyrido[2,3-b]pyrazin-3-yl)-3-ethyl-thiourea]",215 °C
7,"CCNC(=O)Nc1ccc2ncc(Nc3cccc(CO)c3)nc2n1 [Compound 154, 1-Ethyl-3-[3-(3-hydroxymethyl-phenylamino)-pyrido[2,3-b]pyrazin-6-yl]-urea]",238 °C
8,"CCNC(=S)Nc1cnc2ccc(Nc3ccc(C4(C#N)CCCC4)cc3)nc2n1 [Compound 257, 1-{6-[4-(1-Cyano-cyclopentyl)-phenylamino]-pyrido[2,3-b]pyrazin-3-yl}-3-ethyl-thiourea]",216 °C
9,Cc1cc(-c2ccc3ncc(NC(=O)NC4CCCCC4)nc3n2)cc(C)c1O [Compound 584],247 to 250 °C
10,"CCNC(=O)Nc1ccc2ncc(-c3cccc(OCC)c3F)nc2n1 [Compound 146, 1-[3-(3-Ethoxy-2-fluoro-phenyl)-pyrido[2,3-b]pyrazin-6-yl]-3-ethyl-urea]",202 to 204 °C
11,"CCNC(=O)Nc1ccc2ncc(-c3cccc(OCC)c3)nc2n1 [Compound 130, 1-[3-(3-Ethoxy-phenyl)-pyrido[2,3-b]pyrazin-6-yl]-3-ethyl-urea]",220 to 223 °C
12,"CCNC(=O)Nc1ccc2ncc(-c3cnn(CCN4CCOCC4)c3)nc2n1 [Compound 60, 1-Ethyl-3-{3-[1-(2-morpholin-4-yl-ethyl)-1H-pyrazol-4-yl]-pyrido[2,3-b]pyrazin-6-yl}-urea]",223 to 226 °C
13,"COc1cc(Nc2cnc3ccc(NC(=S)NCc4ccc(F)cc4)nc3n2)cc(OC)c1OC [Compound 701, 1-(4-Fluoro-benzyl)-3-[3-(3,4,5-trimethoxy-phenylamino)-pyrido[2,3-b]pyrazin-6-yl]-thiourea]",255 °C
14,"CCNC(=O)Nc1ccc2ncc(-c3cccc(-c4ccccc4)c3)nc2n1 [Compound 116, 1-(3-Biphenyl-3-yl-pyrido[2,3-b]pyrazin-6-yl)-3-ethyl-urea]",251 to 255 °C
15,"CCNC(=O)Nc1cnc2ccc(-c3ccc(C)c(N)c3)nc2n1 [Compound 180, 1-[6-(3-Amino-4-methyl-phenyl)-pyrido[2,3-b]pyrazin-3-yl]-3-ethyl-urea]",> 320 °C
16,"CCNC(=O)Nc1ccc2ncc(Nc3cccc(N(C)C)c3)nc2n1 [Compound 374, 1-[3-(3-Dimethylamino-phenylamino)-pyrido[2,3-b]pyrazin-6-yl]-3-ethyl-urea]",215 °C
17,"CCNC(=O)Nc1cnc2ccc(Nc3ccc(O)cc3)nc2n1 [Compound 24, 1-Ethyl-3-[6-(4-hydroxy-phenylamino)-pyrido[2,3-b]pyrazin-3-yl]-urea]",277 °C
18,"COc1cc(-c2ccc3ncc(NC(=O)N(C)c4ccc(C(C)C)cc4)nc3n2)ccc1O [Compound 635, 3-[6-(4-Hydroxy-3-methoxy-phenyl)-pyrido[2,3-b]pyrazin-3-yl]-1-(4-isopropyl-phenyl)-1-methyl-urea]",226 to 228 °C
19,"C=CCNC(=S)Nc1ccc2ncc(Nc3cc(OC)c(OC)c(OC)c3)nc2n1 [Compound 693, 1-Allyl-3-[3-(3,4,5-trimethoxy-phenylamino)-pyrido[2,3-b]pyrazin-6-yl]-thiourea]",230 to 234 °C
20,"CCNC(=S)Nc1ccc2ncc(Nc3ccc(F)c([N+](=O)[O-])c3)nc2n1 [Compound 489, 1-Ethyl-3-[3-(4-fluoro-3-nitro-phenylamino)-pyrido[2,3-b]pyrazin-6-yl]-thiourea]",260 °C
21,"CCNC(=O)Nc1ccc2ncc(-c3ccc(F)c(F)c3)nc2n1 [Compound 95, 1-[3-(3,4-Difluoro-phenyl)-pyrido[2,3-b]pyrazin-6-yl]-3-ethyl-urea]",259 to 262 °C
22,"CCNC(=S)Nc1cnc2ccc(Nc3cc(OC)c(OC)c(OC)c3)nc2n1 [Compound 200, 1-Ethyl-3-[6-(3,4,5-trimethoxy-phenylamino)-pyrido[2,3-b]pyrazin-3-yl]-thiourea]",238 °C

row,SMILES,melting point
1,"COc1cc(-c2ccc3ncc(NC(=O)NCCCCc4ccccc4)nc3n2)ccc1O [Compound 630, 1-[6-(4-Hydroxy-3-methoxy-phenyl)-pyrido[2,3-b]pyrazin-3-yl]-3-(4-phenyl-butyl)-urea]",208 to 210 °C
2,"COc1cc(-c2ccc3ncc(NC(=S)NC4CCCCCCC4)nc3n2)ccc1O [Compound 653, 1-Cyclooctyl-3-[6-(4-hydroxy-3-methoxy-phenyl)-pyrido[2,3-b]pyrazin-3-yl]-thiourea]",250 to 251 °C
3,"COc1cc(-c2ccc3ncc(NC(=O)NC(C)C)nc3n2)ccc1O [Compound 19, 1-[6-(4-Hydroxy-3-methoxy-phenyl)-pyrido[2,3-b]pyrazin-3-yl]-3-isopropyl-urea]",212 to 214 °C
4,"CCCOc1c(C)cc(-c2ccc3ncc(NC(=O)NCC)nc3n2)cc1C [Compound 598, 1-[6-(3,5-Dimethyl-4-propoxy-phenyl)-pyrido[2,3-b]pyrazin-3-yl]-3-ethyl-urea]",232 °C
5,"CCNC(=S)Nc1ccc2ncc(Nc3ccc(C)cc3C)nc2n1 [Compound 399, 1-[3-(2,4-Dimethyl-phenylamino)-pyrido[2,3-b]pyrazin-6-yl]-3-ethyl-thiourea]",215 °C
6,"CCNC(=O)Nc1cnc2ccc(NCc3ccccc3)nc2n1 [Compound 239, 1-(6-Benzylamino-pyrido[2,3-b]pyrazin-3-yl)-3-ethyl-urea]",211 to 213 °C
7,"COc1cc(Nc2cnc3ccc(NC(=S)NC4CCCCC4)nc3n2)cc(OC)c1OC [Compound 690, 1-Cyclohexyl-3-[3-(3,4,5-trimethoxy-phenylamino)-pyrido[2,3-b]pyrazin-6-yl]-thiourea]",248 °C
8,"CCNC(=O)Nc1ccc2ncc(-c3ccc(O)c(Br)c3)nc2n1 [Compound 47, 1-[3-(3-Bromo-4-hydroxy-phenyl)-pyrido[2,3-b]pyrazin-6-yl]-3-ethyl-urea]",337 to 339 °C
9,"CCNC(=O)Nc1cnc2ccc(Cl)nc2n1 [Example 1, 1-(6-Chloro-pyrido[2,3-b]pyrazin-3-yl)-3-ethyl-urea]",240 °C
10,"CCNC(=O)Nc1ccc2ncc(-c3ccc(-c4ccccc4)cc3)nc2n1 [Compound 123, 1-(3-Biphenyl-4-yl-pyrido[2,3-b]pyrazin-6-yl)-3-ethyl-urea]",280 °C
11,"CCNC(=O)Nc1ccc2ncc(-c3ccc4c(c3)N(C)CCO4)nc2n1 [Compound 35, 1-Ethyl-3-[3-(4-methyl-3,4-dihydro-2H-benzo[1,4]oxazin-6-yl)-pyrido[2,3-b]pyrazin-6-yl]-urea]",245 to 247 °C
12,"CCNC(=S)Nc1ccc2ncc(Nc3ccc(C(C)=O)cc3)nc2n1 [Compound 467, 1-[3-(4-Acetyl-phenylamino)-pyrido[2,3-b]pyrazin-6-yl]-3-ethyl-thiourea]",232 °C
13,"CCNC(=O)Nc1ccc2ncc(-c3ccccc3SC)nc2n1 [Compound 135, 1-Ethyl-3-[3-(2-methylsulfanyl-phenyl)-pyrido[2,3-b]pyrazin-6-yl]-urea]",182 to 185 °C
14,"CCNC(=O)Nc1cnc2ccc(Nc3ccccc3)nc2n1 [Compound 13, 1-Ethyl-3-(6-phenylamino-pyrido[2,3-b]pyrazin-3-yl)-urea]",202 °C
15,"CCNC(=O)Nc1cnc2ccc(-c3ccncc3)nc2n1 [Compound 7, 1-Ethyl-3-(6-pyridin-4-yl-pyrido[2,3-b]pyrazin-3-yl)-urea]",211 °C
16,"CCNC(=O)Nc1ccc2ncc(-c3cnn(CC(C)C)c3)nc2n1 [Compound 59, 1-Ethyl-3-[3-(1-isobutyl-1H-pyrazol-4-yl)-pyrido[2,3-b]pyrazin-6-yl]-urea]",189 to 191 °C
17,CCNC(=O)Nc1cnc2ccc(-c3ccc(C(=O)O)c(O)c3)nc2n1 [Compound 644],225 °C
18,"CCNC(=O)Nc1ccc2ncc(-c3cccc(NS(C)(=O)=O)c3)nc2n1 [Compound 120, N-{3-[6-(3-Ethyl-ureido)-pyrido[2,3-b]pyrazin-3-yl]-phenyl}-methanesulfonamide]",224 to 228 °C
19,"CCCCOc1c(C)cc(-c2ccc3ncc(NC(=O)NCC)nc3n2)cc1C [Compound 599, 1-[6-(4-Butoxy-3,5-dimethyl-phenyl)-pyrido[2,3-b]pyrazin-3-yl]-3-ethyl-urea]",233 °C
20,"O=C(NCCc1ccccc1)Nc1cnc2ccc(-c3cc(Cl)c(O)c(Cl)c3)nc2n1 [Compound 564, 1-[6-(3,5-Dichloro-4-hydroxy-phenyl)-pyrido[2,3-b]pyrazin-3-yl]-3-phenethyl-urea]",280 to 282 °C
21,"CCNC(=O)Nc1ccc2ncc(-c3ccc(NC(=O)OCCOCCOCCOC)c(OC)c3)nc2n1 [Compound 44, {4-[6-(3-Ethyl-ureido)-pyrido[2,3-b]pyrazin-3-yl]-2-methoxy-phenyl}-carbamic acid 2-[2-(2-methoxy-ethoxy)-ethoxy]-ethyl ester]",> 330 °C
22,"COc1ccc(-c2ccc3ncc(NC(=O)NC4CCN(C(=O)C(F)(F)F)CC4)nc3n2)cc1OC [Compound 581, 1-[6-(3,4-Dimethoxy-phenyl)-pyrido[2,3-b]pyrazin-3-yl]-3-[1-(2,2,2-trifluoro-acetyl)-piperidin-4-yl]-urea]",239 to 242 °C
